Reference: patent publication US20090018136A1, “METHODS AND COMPOSITIONS FOR THE TREATMENT OF VASCULAR DISEASE” (priority 2005, published 2009)
Where a name gives a salt, the structure may show the parent alone.

Tests used:
[1] = for hygroscopicity / water adsorbed (hygroscopicity): dihydrochloride; for water adsorbed (hygroscopicity): content to which the form adsorbs water
beagles = details: dog, in vivo
Method: This study evaluated the cardiovascular effects of high doses of 6R-BH4 in combination with the PDE5 inhibitor sildenafil citrate in vivo. Eight male research nonnaïve and naïve purebred beagles were dosed in a double Latin square crossover design as described in the following table. All animals were dosed by oral gavage. Test articles were administered at a dose volume of 5 mL/kg (for a total volume of 10 mL/kg for the combination dose); control animals were dosed at a dose volume of 10 mL/kg. 6R-BH4 (sapropterin dihydrochloride) provided as 300 mg tablets (100 mg active 6R-BH4/tablet) stored at room temperature with desiccant.
At initiation of treatment, the animals were approximately 7 to 10 months old, and their body weights prior to dosing ranged from 7.8 to 12.0 kg.
At least 2 weeks prior to initiation of treatment, animals were fasted overnight, anesthetized, and an electrocardiogram (ECG) and blood pressure transmitter were implanted into the abdomen and sutured to the abdominal wall. The blood pressure catheter was placed in an artery and advanced to the abdominal aorta. Animals were checked twice daily (a.m. and p.m.) for mortality, abnormalities, and signs of pain and distress. Additional findings were recorded as observed.
Detailed observations were taken three times during the predose phase (including the day before dosing) and on Days 3 and 10 of the dosing phase. For each dosing day, ECG and pressure measurements were recorded for at least 90 minutes prior to dosing, continuously for at least 8 hours after dosing, and then for one period of at least 15 minutes in duration each hour through at least 24 hours postdose. Blood pressure measurements included systolic, diastolic, and mean arterial pressures and pulse pressure (systolic-diastolic). […]
Quantitative evaluation of ECG measurements, including RR interval, QT, and rate-corrected QT (QTc, using Fridericia's method), were done.
Positive inotropic effects (+dP/dtmax) and heart rate were calculated from a left ventricular pressure signal predose and approximately 2, 4, 8, 12, and 24 hours postdose. […]

hypertensive patients = assay: Study 2: dose-response of oral BH4 on blood pressure and heart rate, after 2-week vitamin C run-in; assay type: in vivo, human
Method: Prior studies have used parenteral infusion of BH4 or a single oral dose; thus it was not known whether long-term oral BH4 over a period of days to weeks would result in a sustained improvement in endothelial dysfunction. […] Two studies were conducted to investigate the duration of action of oral BH4 and the response of hypertensive subjects to different doses of BH4. […] Patients were continued on their current anti-hypertensive therapy which remained unchanged. […] BH4 powder was obtained from Schircks Laboratories (Jona, Switzerland). BH4 when administered with vitamin C was compounded with vitamin C at a ratio of 1 mg of vitamin C/1 mg BH4 into appropriate sized capsules. Subjects were advised to keep the pills in a freezer or refrigerator. For both study 1 and study 2, the primary end point after statistical analysis was a reduction of systolic, mean and diastolic BP during BH4 therapy. Secondary end points included improvement of endothelial function as FMD. Linear mixed effects models for repeated measures data were used to analyze change in BP from baseline to end of treatment period and differences in change between 100 mg and 200 mg dose groups. A quadratic term for week was included in the model to account for non-linear trends over the treatment period. Dose, week and week squared were the main effect terms in the model; dose by week and dose by week squared were the interaction terms in the model. Significant interaction terms indicate a difference in the pattern of change between the two dose groups. FMD data was analyzed using the two-tailed student t-test. […] Of the 20 subjects who qualified for participation, 4 were excluded during the run-in phase because of inability to return for follow-up appointments. There were 6 male subjects, mean age 59.5±8.3 years. Eight subjects received 200 mg b.i.d (twice daily) of oral BH4 and 8 received 100 mg b.i.d. of oral BH4. […] Because BH4 was compounded with vitamin C in a 1:1 ratio, all subjects received vitamin C, at their assigned BH4 dose, twice a day during the first 2-week period. After this 2-week run-in period, subjects received BH4 only at their assigned dosage for the next 4 weeks. Weekly heart rate and BP measurements were made during the run-in period and treatment period. Mean blood pressure was calculated as: (SBP+2×DBP)/3. BH4 was then stopped and follow-up was performed at 1 and 4 weeks after discontinuation where BP and heart rate measurements were made. Routine chemistries and LFT's were drawn prior to initiation of medication, at the end of BH4 therapy and one month after discontinuation of BH4.

[2] = tested on: sickle cell transgenic (PS) mice; details: administration to sickle cell transgenic (PS) mice; cited from earlier work

C[C@H](O)[C@H](O)[C@H]1CNc2nc(N)[nH]c(=O)c2N1.Cl.Cl [form C, (6R)-L-erythro-tetrahydrobiopterin dihydrochloride]
hygroscopicity [1]: slightly hygroscopic

CCCc1nn(C)c2c(=O)[nH]c(-c3cc(S(=O)(=O)N4CCN(C)CC4)ccc3OCC)nc12 [sildenafil citrate]
Arterial pulse pressure (beagles): significantly increased | Heart rate (beagles): significantly increased

C[C@H](O)[C@H](O)[C@H]1CNc2nc(N)[nH]c(=O)c2N1.Cl.Cl [form A, (6R)-L-erythro-tetrahydrobiopterin dihydrochloride]
water adsorbed (hygroscopicity) [1]: about 3 percent by weight | hygroscopicity [1]: slightly hygroscopic | phase equilibration test of suspensions ([1]; tetrahydrofuran five days or tertiary-butyl methyl ether 18 hours, under nitrogen at room temperature, then filtration and air-drying): unchanged

C[C@H](O)[C@H](O)[C@H]1CNc2nc(N)[nH]c(=O)c2N1.Cl.Cl [form F, (6R)-L-erythro-tetrahydrobiopterin dihydrochloride]
water adsorbed (hygroscopicity) [1]: about 3 percent by weight | hygroscopicity [1]: slightly hygroscopic

C[C@H](O)[C@H](O)[C@H]1CNc2nc(N)[nH]c(=O)c2N1.Cl.Cl [form D, (6R)-L-erythro-tetrahydrobiopterin dihydrochloride]
hygroscopicity [1]: slightly hygroscopic

C[C@H](O)[C@H](O)[C@H]1CNc2nc(N)[nH]c(=O)c2N1.Cl.Cl [form K, (6R)-L-erythro-tetrahydrobiopterin dihydrochloride]
water adsorbed (hygroscopicity) [1]: about 2.0 percent by weight | hygroscopicity [1]: slightly hygroscopic

C[C@H](O)[C@H](O)[C@H]1CNc2nc(N)[nH]c(=O)c2N1.Cl.Cl [form J, (6R)-L-erythro-tetrahydrobiopterin dihydrochloride]
hygroscopicity [1]: slightly hygroscopic

O=C1O[C@H]([C@@H](O)CO)C(O)=C1O [vitamin C, ascorbic acid, reference compound]
diastolic arterial BP (hypertensive patients; Study 2, 16 subjects, after 2 weeks of vitamin C run-in, 84±13 before, p=ns): 86±11 mmHg | mean arterial BP (hypertensive patients; Study 2, 16 subjects, after 2 weeks of vitamin C run-in, 106±10 before, p=ns): 106±12 mmHg | systolic arterial BP (hypertensive patients; Study 2, 16 subjects, after 2 weeks of vitamin C run-in, 152±11 before, p=ns): 148±19 mmHg | change in heart rate or BP during the run-in phase (hypertensive patients; Study 2, vitamin C twice a day for 2 weeks, either group): no significant change

C[C@H](O)[C@H](O)[C@H]1CNc2nc(N)[nH]c(=O)c2N1.Cl.Cl [form B, (6R)-L-erythro-tetrahydrobiopterin dihydrochloride]
hygroscopicity [1]: slightly hygroscopic

C[C@H](O)[C@H](O)[C@H]1CNc2nc(N)[nH]c(=O)c2N1.Cl.Cl [form E, (6R)-L-erythro-tetrahydrobiopterin dihydrochloride]
hygroscopicity [1]: non-hygroscopic

C[C@H](O)C(=O)C1=Nc2c(nc(N)[nH]c2=O)NC1 [sepiapterin]
blood cell adhesion [2]: attenuation
